Data as given in patent US7998972B2, “1H-imidazo[4,5-c]quinoline derivatives in the treatment of protein kinase dependent diseases” (Novartis AG, priority 2002, dated 2011).

Target: PKB/Akt (Homo sapiens, UniProt P31749)
Assay: Inhibition of PKB/Akt in vitro
Type: biochemical
Conditions: PDK1-activated GST-PKB, LRRPRTRSFS peptide, 20 μM ATP; read-out: IC50 range class, inhibition of PKB/Akt in vitro
Procedure: The activity as inhibitor of PKB can be determined as follows:
To fully activate PKB, the enzyme is exposed to catalytic amounts of PDK1. GST-PKB (100 ng, Specific Activity: 0.2 nmoles/mg/mins) is incubated for 30 min at room temperature (rt) with purified recombinant GST-PDK1 (1 ng, SA: 2 nmoles/min/mg). The activation is performed as follows: 0.1 μg of GST-PDK1 (0.05 μl) and 10 μg of GST-PKB (0.45 μl) are mixed in a total volume of 0.75 μl containing 15 μM ATP, 3 mM MgCl2, 20 mM Hepes (pH 7.6) for 30 mins at rt. The reaction is subsequently stopped by adding 0.25 μl containing 30% glycerol (w/w) and 0.06 μl of 500 mM EDTA. 100-500 ng (0.01-0.05 μl) activated GST-PKB is incubated in a final volume of 30 μl with 10 μM of the LRRPRTRSFS peptide, 10 mM Mg-acetate, 50 mM MOPS (PH 7.5), 1 mM DTT and 300 μg/ml BSA, 20 μM ATP (0.1 μCi gamma-^33P-ATP). The reaction is carried out for 30 min at rt in the presence of either 1% DMSO or the text compound of the formula I at the required concentration in 1% DMSO. The reaction is terminated by the addition of 20 μl 125 mM EDTA. 30 ill of each sample is spotted onto P81 Whatman and the paper squares processed as described in Ferrari, S. and Thomas, G. (1991) Meth. Enzymol. 200, 159-169. IC50 values are calculated by linear regression analysis of the percentage inhibition of each compound in duplicate.

PKB/Akt, sequence (P31749 whole entry): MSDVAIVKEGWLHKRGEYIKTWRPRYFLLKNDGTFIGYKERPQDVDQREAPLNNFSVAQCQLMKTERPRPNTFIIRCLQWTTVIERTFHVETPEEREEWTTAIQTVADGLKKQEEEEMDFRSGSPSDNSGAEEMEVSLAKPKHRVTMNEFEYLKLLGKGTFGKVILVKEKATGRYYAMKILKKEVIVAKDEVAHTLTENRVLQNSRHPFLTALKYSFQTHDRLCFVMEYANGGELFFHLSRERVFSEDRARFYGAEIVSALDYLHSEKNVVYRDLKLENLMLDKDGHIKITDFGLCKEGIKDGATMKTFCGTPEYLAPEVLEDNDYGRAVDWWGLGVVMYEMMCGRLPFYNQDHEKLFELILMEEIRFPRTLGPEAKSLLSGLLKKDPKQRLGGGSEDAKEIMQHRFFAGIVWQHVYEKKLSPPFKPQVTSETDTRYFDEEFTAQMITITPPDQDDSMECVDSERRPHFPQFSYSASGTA

IC50 [nM]	SMILES
1000 to 2000	Fc1ccccc1-n1cnc2cnc3ccc(-c4ccccc4)cc3c21 [Example 54, 1-(2-Fluoro-phenyl)-8-phenyl-1H-imidazo[4,5-c]quinoline]
1000 to 2000	COc1ccc(-c2ccc3ncc4ncn(-c5ccccc5Cl)c4c3c2)cc1 [Example 137, 1-(2-Chloro-phenyl)-8-(4-methoxy-phenyl)-1H-imidazo[4,5-c]quinoline]
